Reference: the kinase profiling compilation of Christmann-Franck et al. (2016)

What was measured:
Test in all cases: radiometric filter-binding kinase assay, Kinase HotSpot
Details in all cases: compound 0.5 µM; ATP 10 µM
[1] = biological target: AKT2 (human) (UniProt P31751)
[2] = biological target: AURKB (human) (UniProt Q96GD4)
[3] = biological target: AURKC (human) (UniProt Q9UQB9)
[4] = biological target: BRSK2 (human) (UniProt Q8IWQ3)
[5] = biological target: CAMK1 (human) (UniProt Q14012)
CAMK1 (human), sequence (Q14012 whole entry, looked up): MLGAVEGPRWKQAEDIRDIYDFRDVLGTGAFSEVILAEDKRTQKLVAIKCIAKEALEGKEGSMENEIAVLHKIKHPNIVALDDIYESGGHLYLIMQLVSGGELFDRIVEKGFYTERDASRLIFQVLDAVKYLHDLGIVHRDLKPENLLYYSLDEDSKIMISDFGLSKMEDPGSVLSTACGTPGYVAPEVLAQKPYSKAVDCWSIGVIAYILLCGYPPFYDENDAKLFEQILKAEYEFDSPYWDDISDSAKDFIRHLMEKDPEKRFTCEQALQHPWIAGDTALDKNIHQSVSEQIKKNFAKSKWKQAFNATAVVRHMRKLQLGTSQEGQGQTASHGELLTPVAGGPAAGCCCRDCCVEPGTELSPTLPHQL

[6] = biological target: CAMK1G (human) (UniProt Q96NX5)
[7] = biological target: CAMK2B (human) (UniProt Q13554)
[8] = biological target: CAMK2D (human) (UniProt Q13557)
CAMK2D (human), sequence (Q13557 whole entry, looked up): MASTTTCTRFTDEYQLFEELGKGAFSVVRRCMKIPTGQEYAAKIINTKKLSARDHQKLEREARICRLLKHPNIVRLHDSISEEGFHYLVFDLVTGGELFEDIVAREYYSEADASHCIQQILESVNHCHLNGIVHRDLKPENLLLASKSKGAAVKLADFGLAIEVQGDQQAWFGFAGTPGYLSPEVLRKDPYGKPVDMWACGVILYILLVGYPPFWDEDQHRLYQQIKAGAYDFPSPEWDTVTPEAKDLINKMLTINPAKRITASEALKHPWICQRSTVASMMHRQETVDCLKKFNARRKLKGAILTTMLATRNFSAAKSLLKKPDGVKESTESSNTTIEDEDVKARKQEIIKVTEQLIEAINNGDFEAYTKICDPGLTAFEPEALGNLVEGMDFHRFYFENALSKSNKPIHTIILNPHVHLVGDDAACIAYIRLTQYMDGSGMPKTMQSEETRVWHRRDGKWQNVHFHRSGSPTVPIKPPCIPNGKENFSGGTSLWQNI

[9] = biological target: CDK1 CCNB1 (human) (UniProt P06493+P14635)
[10] = biological target: CDK6 CCND1 (human) (UniProt Q00534+P24385)
CDK6 CCND1 (human), sequence (P24385 whole entry, looked up): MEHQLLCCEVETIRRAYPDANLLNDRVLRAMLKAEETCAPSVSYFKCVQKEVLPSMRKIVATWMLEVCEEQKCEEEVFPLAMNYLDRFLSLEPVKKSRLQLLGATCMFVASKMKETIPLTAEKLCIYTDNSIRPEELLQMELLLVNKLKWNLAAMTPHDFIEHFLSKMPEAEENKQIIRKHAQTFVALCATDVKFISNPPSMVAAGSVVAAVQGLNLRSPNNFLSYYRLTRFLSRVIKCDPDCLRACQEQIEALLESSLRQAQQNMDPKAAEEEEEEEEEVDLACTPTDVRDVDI
CDK6 CCND1 (human), sequence (Q00534 whole entry, looked up): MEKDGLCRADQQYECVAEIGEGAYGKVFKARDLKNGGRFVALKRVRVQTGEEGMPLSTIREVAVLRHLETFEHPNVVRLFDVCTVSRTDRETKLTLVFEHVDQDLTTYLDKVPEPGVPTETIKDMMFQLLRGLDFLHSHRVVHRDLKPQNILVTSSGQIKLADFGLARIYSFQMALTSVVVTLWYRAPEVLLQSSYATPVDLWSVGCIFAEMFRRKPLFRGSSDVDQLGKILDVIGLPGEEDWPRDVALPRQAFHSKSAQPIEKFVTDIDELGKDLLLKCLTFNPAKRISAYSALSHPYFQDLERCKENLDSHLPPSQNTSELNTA

[11] = biological target: CDK9 CCNK (human) (UniProt O75909+P50750)
[12] = biological target: CSK (human) (UniProt P41240)
[13] = biological target: CSNK2A1 (human) (UniProt P68400)
[14] = biological target: DYRK1B (human) (UniProt Q9Y463)
[15] = biological target: EPHA2 (human) (UniProt P29317)
[16] = biological target: ERBB4 (human) (UniProt Q15303)
[17] = biological target: IKBKE (human) (UniProt Q14164)
[18] = biological target: KIT (human) (UniProt P10721)
KIT (human), sequence (P10721 whole entry, looked up): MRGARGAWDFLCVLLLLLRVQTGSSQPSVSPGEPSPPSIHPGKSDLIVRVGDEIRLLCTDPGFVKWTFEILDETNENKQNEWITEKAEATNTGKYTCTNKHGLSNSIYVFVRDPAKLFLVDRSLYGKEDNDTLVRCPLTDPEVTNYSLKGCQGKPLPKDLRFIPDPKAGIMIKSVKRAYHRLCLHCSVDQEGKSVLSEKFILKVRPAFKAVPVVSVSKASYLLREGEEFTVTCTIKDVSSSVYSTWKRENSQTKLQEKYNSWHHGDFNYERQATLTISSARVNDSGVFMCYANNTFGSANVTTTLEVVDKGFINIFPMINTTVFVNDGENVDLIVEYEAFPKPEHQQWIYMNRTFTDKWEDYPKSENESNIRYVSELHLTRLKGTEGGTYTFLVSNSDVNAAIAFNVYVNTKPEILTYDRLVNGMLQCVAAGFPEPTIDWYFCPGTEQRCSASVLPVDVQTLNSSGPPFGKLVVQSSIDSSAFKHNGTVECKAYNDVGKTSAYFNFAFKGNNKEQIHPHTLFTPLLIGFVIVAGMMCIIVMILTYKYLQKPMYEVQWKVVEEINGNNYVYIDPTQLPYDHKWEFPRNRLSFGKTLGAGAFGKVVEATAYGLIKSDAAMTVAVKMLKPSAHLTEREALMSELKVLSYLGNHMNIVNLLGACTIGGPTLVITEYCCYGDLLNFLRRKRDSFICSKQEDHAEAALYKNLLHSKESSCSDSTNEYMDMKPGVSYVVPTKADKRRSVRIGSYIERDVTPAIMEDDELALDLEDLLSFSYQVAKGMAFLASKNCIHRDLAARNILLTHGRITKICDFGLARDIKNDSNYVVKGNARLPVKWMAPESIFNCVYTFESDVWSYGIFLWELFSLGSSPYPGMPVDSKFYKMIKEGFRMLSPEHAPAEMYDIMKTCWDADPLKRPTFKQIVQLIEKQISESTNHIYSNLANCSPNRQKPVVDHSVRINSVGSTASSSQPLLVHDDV

[19] = biological target: MAP3K11 (human) (UniProt Q16584)
MAP3K11 (human), sequence (Q16584 whole entry, looked up): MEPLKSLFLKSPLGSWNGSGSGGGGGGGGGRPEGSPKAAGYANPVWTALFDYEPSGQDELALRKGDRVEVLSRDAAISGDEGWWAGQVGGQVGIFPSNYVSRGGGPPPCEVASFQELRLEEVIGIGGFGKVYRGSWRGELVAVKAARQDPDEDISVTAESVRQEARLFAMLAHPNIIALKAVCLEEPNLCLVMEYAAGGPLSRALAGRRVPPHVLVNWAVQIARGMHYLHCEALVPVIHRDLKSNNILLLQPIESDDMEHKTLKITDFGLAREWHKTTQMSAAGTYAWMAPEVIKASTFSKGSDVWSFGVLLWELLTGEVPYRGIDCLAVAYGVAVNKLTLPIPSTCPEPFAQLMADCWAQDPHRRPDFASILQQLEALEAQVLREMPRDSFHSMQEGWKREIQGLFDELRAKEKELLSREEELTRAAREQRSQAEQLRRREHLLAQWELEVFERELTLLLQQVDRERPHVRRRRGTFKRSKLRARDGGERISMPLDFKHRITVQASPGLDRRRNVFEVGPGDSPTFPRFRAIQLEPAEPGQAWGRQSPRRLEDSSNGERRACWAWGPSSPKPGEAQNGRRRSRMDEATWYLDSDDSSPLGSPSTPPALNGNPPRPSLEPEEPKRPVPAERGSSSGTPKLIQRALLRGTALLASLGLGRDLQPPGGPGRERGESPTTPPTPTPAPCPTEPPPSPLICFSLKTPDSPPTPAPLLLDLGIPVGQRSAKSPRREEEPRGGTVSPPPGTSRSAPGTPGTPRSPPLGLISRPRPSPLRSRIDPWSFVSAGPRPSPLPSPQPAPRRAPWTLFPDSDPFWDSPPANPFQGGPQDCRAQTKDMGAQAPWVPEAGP

[20] = biological target: MAP3K14 (human) (UniProt Q99558)
[21] = biological target: MAP3K2 (human) (UniProt Q9Y2U5)
[22] = biological target: MAP3K3 (human) (UniProt Q99759)
MAP3K3 (human), sequence (Q99759 whole entry, looked up): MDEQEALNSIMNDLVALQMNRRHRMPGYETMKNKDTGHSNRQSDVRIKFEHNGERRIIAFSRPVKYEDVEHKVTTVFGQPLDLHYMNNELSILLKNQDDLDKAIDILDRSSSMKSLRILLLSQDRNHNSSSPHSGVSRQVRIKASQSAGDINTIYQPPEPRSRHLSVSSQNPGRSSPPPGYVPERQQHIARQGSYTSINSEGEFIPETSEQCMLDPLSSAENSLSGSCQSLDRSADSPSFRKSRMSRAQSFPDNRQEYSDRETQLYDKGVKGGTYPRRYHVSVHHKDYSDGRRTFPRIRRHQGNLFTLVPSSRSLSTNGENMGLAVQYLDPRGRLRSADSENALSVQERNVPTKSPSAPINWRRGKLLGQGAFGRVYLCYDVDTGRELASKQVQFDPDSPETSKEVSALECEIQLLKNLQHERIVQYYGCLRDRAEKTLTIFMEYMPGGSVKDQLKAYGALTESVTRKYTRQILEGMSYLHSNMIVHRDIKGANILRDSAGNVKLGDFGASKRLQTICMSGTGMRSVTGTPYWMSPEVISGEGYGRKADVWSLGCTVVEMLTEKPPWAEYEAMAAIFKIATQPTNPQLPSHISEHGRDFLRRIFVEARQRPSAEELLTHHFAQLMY

[23] = biological target: MAP3K7 TAB1 (human) (UniProt O43318+Q15750)
[24] = biological target: MAP3K9 (human) (UniProt P80192)
[25] = biological target: MAPK10 (human) (UniProt P53779)
[26] = biological target: PAK7 (human) (UniProt Q9P286)
[27] = biological target: PDGFRA (human) (UniProt P16234)
[28] = biological target: PDPK1 (human) (UniProt O15530)
[29] = biological target: PRKCB1 (human) (UniProt P05771)
[30] = biological target: PRKCZ (human) (UniProt Q05513)
[31] = biological target: PRKD3 (human) (UniProt O94806)
[32] = biological target: PRKG2 (human) (UniProt Q13237)
[33] = biological target: RAF1 (human) (UniProt P04049)
[34] = biological target: ROS1 (human) (UniProt P08922)
[35] = biological target: SRMS (human) (UniProt Q9H3Y6)
[36] = biological target: STK10 (human) (UniProt O94804)
[37] = biological target: STK16 (human) (UniProt O75716)
STK16 (human), sequence (O75716 whole entry, looked up): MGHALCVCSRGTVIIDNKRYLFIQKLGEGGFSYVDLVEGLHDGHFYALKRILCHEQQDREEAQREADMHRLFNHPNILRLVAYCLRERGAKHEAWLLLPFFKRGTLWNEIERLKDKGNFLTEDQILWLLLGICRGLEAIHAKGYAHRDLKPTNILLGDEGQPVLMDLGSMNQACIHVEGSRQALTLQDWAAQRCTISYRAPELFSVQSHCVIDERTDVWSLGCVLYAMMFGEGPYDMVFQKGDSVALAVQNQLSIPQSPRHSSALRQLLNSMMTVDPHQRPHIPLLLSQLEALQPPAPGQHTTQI

[38] = biological target: STK4 (human) (UniProt Q13043)
[39] = biological target: SYK (human) (UniProt P43405)
[40] = biological target: TEK (human) (UniProt Q02763)
[41] = biological target: WEE1 (human) (UniProt P30291)
WEE1 (human), sequence (P30291 whole entry, looked up): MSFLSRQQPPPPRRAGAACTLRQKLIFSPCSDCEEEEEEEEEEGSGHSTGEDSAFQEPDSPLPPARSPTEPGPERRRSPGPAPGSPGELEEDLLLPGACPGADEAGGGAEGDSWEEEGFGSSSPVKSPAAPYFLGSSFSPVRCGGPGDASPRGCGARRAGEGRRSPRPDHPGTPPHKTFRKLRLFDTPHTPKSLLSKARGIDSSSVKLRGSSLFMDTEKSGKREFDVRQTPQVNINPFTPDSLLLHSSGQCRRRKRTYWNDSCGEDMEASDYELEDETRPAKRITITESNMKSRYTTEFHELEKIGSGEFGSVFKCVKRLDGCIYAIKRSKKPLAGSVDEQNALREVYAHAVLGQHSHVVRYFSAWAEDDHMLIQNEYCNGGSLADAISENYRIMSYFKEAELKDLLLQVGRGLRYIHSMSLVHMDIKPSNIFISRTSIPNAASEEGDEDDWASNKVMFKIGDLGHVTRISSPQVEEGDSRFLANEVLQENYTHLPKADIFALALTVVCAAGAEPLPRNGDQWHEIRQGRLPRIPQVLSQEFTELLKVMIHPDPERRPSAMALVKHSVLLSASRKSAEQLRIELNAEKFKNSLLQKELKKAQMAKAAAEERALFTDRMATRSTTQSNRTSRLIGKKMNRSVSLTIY

[42] = biological target: ZAP70 (human) (UniProt P43403)

Nc1n[nH]c2nnc(-c3c(-c4ccccc4)nn4ccccc34)cc12
residual activity [1]: 97.5%
residual activity [2]: 96.8%
residual activity [3]: 96.4%
residual activity [4]: 96.1%
residual activity [5]: 102%
residual activity [6]: 99.2%
residual activity [7]: 102%
residual activity [8]: 96.5%
residual activity [9]: 90.2%
residual activity [10]: 100%
residual activity [11]: 98.5%
residual activity [12]: 98%
residual activity [13]: 94.8%
residual activity [14]: 101%
residual activity [15]: 98.3%
residual activity [16]: 91.4%
residual activity [17]: 95.5%
residual activity [18]: 97.1%
residual activity [19]: 94.3%
residual activity [20]: 102%
residual activity [21]: 97.8%
residual activity [22]: 110%
residual activity [23]: 101%
residual activity [24]: 99.9%
residual activity [25]: 103%
residual activity [26]: 98.2%
residual activity [27]: 99.7%
residual activity [28]: 104%
residual activity [29]: 96.5%
residual activity [30]: 83.9%
residual activity [31]: 58.9%
residual activity [32]: 104%
residual activity [33]: 95.6%
residual activity [34]: 80.2%
residual activity [35]: 93%
residual activity [36]: 70.9%
residual activity [37]: 108%
residual activity [38]: 99.1%
residual activity [39]: 97.4%
residual activity [40]: 96.6%
residual activity [41]: 92.4%
residual activity [42]: 90.1%

CCN1/C(=C/C(C)=O)Sc2ccc(OC)cc21
residual activity [1]: 95.2%
residual activity [2]: 87.9%
residual activity [3]: 94.8%
residual activity [4]: 89.5%
residual activity [5]: 88.5%
residual activity [6]: 101%
residual activity [7]: 102%
residual activity [8]: 92.2%
residual activity [9]: 93.2%
residual activity [10]: 108%
residual activity [11]: 86.2%
residual activity [12]: 104%
residual activity [13]: 98.1%
residual activity [14]: 32.9%
residual activity [15]: 99.1%
residual activity [16]: 101%
residual activity [17]: 99%
residual activity [18]: 67.8%
residual activity [19]: 102%
residual activity [20]: 86.1%
residual activity [21]: 101%
residual activity [22]: 114%
residual activity [23]: 99.9%
residual activity [24]: 98.8%
residual activity [25]: 102%
residual activity [26]: 84.7%
residual activity [27]: 105%
residual activity [28]: 97.5%
residual activity [29]: 99.4%
residual activity [30]: 98%
residual activity [31]: 62.5%
residual activity [32]: 65.8%
residual activity [33]: 95.9%
residual activity [34]: 113%
residual activity [35]: 84.7%
residual activity [36]: 96.8%
residual activity [37]: 87.4%
residual activity [38]: 97.8%
residual activity [39]: 94.8%
residual activity [40]: 102%
residual activity [41]: 102%
residual activity [42]: 103%
